≈ marks a conversion by molar mass, not a printed value.
What was measured:
Assay type in all cases: functional
[1] = system: Tetranychus kanzawai; experiment: Acaricidal activity against Tetranychus kanzawai in kidney bean leaf surface after 48 hr
[2] = system: Tetranychus urticae; experiment: Acaricidal activity against Tetranychus urticae (two-spotted spider mite) in kidney bean leaf surface after 48 hr
[3] = system: Tetranychus urticae; experiment: Acaricidal activity against Tetranychus urticae (two-spotted spider mite) in two-leaf stage of kidney bean leaf surface at 15.6 ppm after 6 hr relative to control
[4] = system: Tetranychus urticae; experiment: Acaricidal activity against Tetranychus urticae (two-spotted spider mite) in two-leaf stage of kidney bean leaf surface at 62.5 ppm after 6 hr relative to control
[5] = system: Tetranychus urticae; experiment: Acaricidal activity against Tetranychus urticae (two-spotted spider mite) in two-leaf stage of kidney bean leaf surface at 250 ppm after 6 hr relative to control
[6] = system: Tetranychus urticae; experiment: Acaricidal activity against Tetranychus urticae (two-spotted spider mite) in two-leaf stage of kidney bean leaf surface at 500 ppm after 6 hr relative to control

## CC(C)(C)c1ccc(CSc2cnn(C(C)(C)C)c(=O)c2Cl)cc1 [PYRIDABEN]
[1]
  LC50: 33.7 µg/mL (≈ 92.3 µM)
[2]
  LC50: 34.5 µg/mL (≈ 94.5 µM)

## CO/N=C(/c1ccc([N+](=O)[O-])cc1)c1ccccc1COc1ccc(C(F)(F)F)cn1
[3]
  Activity: 0%
[4]
  Activity: 70%
[5]
  Activity: 95%
[6]
  Activity: 95%

## CO/N=C(/c1ccccc1Cl)c1ccccc1COc1ccc(C(F)(F)F)cn1
[6]
  Activity: 0%

## CO/N=C(/c1ccc(Cl)cc1)c1ccccc1COc1nnc(C(F)(F)F)s1
[6]
  Activity: 0%

## CO/N=C(/c1ccc(Cl)cc1)c1ccccc1COc1ccc(C)cc1
[6]
  Activity: 0%

## CO/N=C(/c1ccc(Cl)cc1)c1ccccc1Oc1ccc(C(F)(F)F)cc1
[6]
  Activity: 0%

## CO/N=C(/c1ccccc1)c1ccccc1COc1ccc(C(F)(F)F)cn1
[6]
  Activity: 0%

## CO/N=C(\c1ccc(F)cc1)c1ccccc1COc1ccc(C(F)(F)F)cc1
[6]
  Activity: 70%

## CO/N=C(/c1ccc(Cl)cc1)c1ccccc1COc1ccccc1C(F)(F)F
[6]
  Activity: 0%

## CO/N=C(/c1cccc(Cl)c1)c1ccccc1COc1ccc(C(F)(F)F)cn1
[6]
  Activity: 0%

## CO/N=C(/c1ccc(Cl)cc1)c1ccccc1COc1ccccc1
[6]
  Activity: 0%

## CO/N=C(\c1ccc(Cl)cc1)c1ccccc1COc1ccc(C(F)(F)F)cc1
[5]
  Activity: 70%
[6]
  Activity: 95%

## CO/N=C(/c1ccc(Cl)cc1)c1ccccc1COc1ccccc1Cl
[6]
  Activity: 0%

## CO/N=C(/c1ccc(Cl)cc1)c1ccccc1COc1cccc(Cl)c1
[6]
  Activity: 0%

## CO/N=C(/c1ccc(C#N)cc1)c1ccccc1COc1ccc(C(F)(F)F)cn1
[3]
  Activity: 0%
[4]
  Activity: 70%
[5]
  Activity: 95%
[6]
  Activity: 95%

## CO/N=C(/c1ccc(F)cc1)c1ccccc1COc1ccc(C(F)(F)F)cc1
[5]
  Activity: 0%
[6]
  Activity: 95%

## CON=C(c1ccccc1F)c1ccccc1COc1ccc(C(F)(F)F)cn1
[6]
  Activity: 0%

## CO/N=C(/c1ccc(Br)cc1)c1ccccc1COc1ccc(C(F)(F)F)cn1
[3]
  Activity: 70%
[4]
  Activity: 95%
[5]
  Activity: 95%
[6]
  Activity: 95%

## CO/N=C(/c1ccc(Cl)cc1)c1ccccc1COc1ccc(-c2ccccc2)cc1
[6]
  Activity: 0%

## CO/N=C(/c1ccc(OC)cc1)c1ccccc1COc1ccc(C(F)(F)F)cn1
[6]
  Activity: 0%

## CO/N=C(/c1ccc(Cl)cc1)c1ccccc1COc1ccc(C(F)(F)F)cn1
[1]
  LC50: 9 µg/mL (≈ 21.4 µM)
[2]
  LC50: 16.4 µg/mL (≈ 39 µM)
[3]
  Activity: 95%
[4]
  Activity: 95%
[5]
  Activity: 95%
[6]
  Activity: 95%

## CON=C(c1ccc(Cl)cc1)c1ccc(COc2ccc(C(F)(F)F)cc2)cc1
[6]
  Activity: 0%

## CO/N=C(/c1ccc(Oc2ccccc2)cc1)c1ccccc1COc1ccc(C(F)(F)F)cn1
[6]
  Activity: 0%

## CO/N=C(/c1ccc(OC(F)(F)F)cc1)c1ccccc1COc1ccc(C(F)(F)F)cn1
[3]
  Activity: 0%
[4]
  Activity: 70%
[5]
  Activity: 70%
[6]
  Activity: 95%

## CO/N=C(/c1ccc(Cl)cc1)c1ccccc1COc1ncccc1C(F)(F)F
[6]
  Activity: 0%

## CO/N=C(/c1ccc(-c2ccccc2)cc1)c1ccccc1COc1ccc(C(F)(F)F)cn1
[6]
  Activity: 0%

## CO/N=C(/c1ccc(C(F)(F)F)cc1)c1ccccc1COc1ccc(C(F)(F)F)cn1
[1]
  LC50: 7.2 µg/mL (≈ 15.8 µM)
[2]
  LC50: 24.8 µg/mL (≈ 54.6 µM)
[3]
  Activity: 70%
[4]
  Activity: 95%
[5]
  Activity: 95%
[6]
  Activity: 95%

## CO/N=C(/c1ccc(Cl)cc1)c1ccccc1COc1cccc(C(F)(F)F)c1
[6]
  Activity: 0%

## CO/N=C(/c1ccc(Cl)cc1)c1ccccc1COc1ccc(Cl)cc1
[6]
  Activity: 0%

## CO/N=C(/c1cccc(F)c1)c1ccccc1COc1ccc(C(F)(F)F)cn1
[6]
  Activity: 70%

## CO/N=C(/c1ccc(Cl)cc1)c1ccccc1COc1ccc(OC(F)(F)F)cc1
[6]
  Activity: 0%

## CON=C(c1ccc(F)cc1)c1cccc(COc2ccc(C(F)(F)F)cc2)c1
[6]
  Activity: 0%

## CO/N=C(/c1ccc(Cl)cc1)c1ccccc1COc1ncc(C(F)(F)F)cc1Cl
[6]
  Activity: 0%

## CO/N=C(/c1ccc(Cl)cc1)c1ccccc1COc1ccc(C(F)(F)F)cc1
[4]
  Activity: 0%
[5]
  Activity: 95%
[6]
  Activity: 95%

## CO/N=C(/c1ccc(Cl)cc1)c1ccccc1OCc1ccc(C(F)(F)F)cc1
[6]
  Activity: 0%

## CON=C(c1ccc(F)cc1)c1ccc(COc2ccc(C(F)(F)F)cc2)cc1
[6]
  Activity: 0%

## CO/N=C(/c1ccc(C)cc1)c1ccccc1COc1ccc(C(F)(F)F)cn1
[6]
  Activity: 0%

## CO/N=C(/c1ccc(Cl)cc1)c1ccccc1COc1ccc(C(C)(C)C)cc1
[6]
  Activity: 0%

## CO/N=C(/c1ccc(F)cc1)c1ccccc1COc1ccc(C(F)(F)F)cn1
[3]
  Activity: 0%
[4]
  Activity: 70%
[5]
  Activity: 95%
[6]
  Activity: 95%

## CON=C(c1ccc(Cl)cc1)c1cccc(COc2ccc(C(F)(F)F)cc2)c1
[6]
  Activity: 0%

Source: ChEMBL document CHEMBL3044726, “Synthesis and Acaricidal Activities of New Benzophenone O-Methyloximes” (2001)
